# Data taken from patent US20060106028A1, “Polycyclic aromatics and derivatives thereof and processes for their preparation” (priority 2004, published 2006).
# Assays:
# Assay type in all cases: cell-based
# [1] = tested on: MDA-MB-231 (mammary gland adenocarcinoma); test: In vitro tumor growth inhibition (GI50, propidium iodide); settings: Homo sapiens, 96 hrs
# SF268 (CNS) [2] = test: as above; settings: Homo sapiens; SF-268; 96 hrs
# 1121L (Lung) = test: In vitro cytotoxic activity, 36 tumor cell lines panel; settings: 96 hours
# Protocol: (§1) Culture conditions and activity evaluations of Compound 1 against 36 cancer cell lines were done as described below. Results were expressed as the concentration of drug which inhibits 50% of the cell growth (IC50, calculated using the formula: [Ti/C]×100=−50).
# (§2) The compound was dissolved at 10 mM in DMSO. Dilution in vehicle to concentrations of 30, 10, 3, 1 and 0.3 μM were prepared immediately before assays. Depending on the cell line's growth characteristics, 4000-10000 cells were plated in two 96-wells pates (day 0) and incubated for 16 hours. The following day, propidium iodide was added to one of the two plates. Test compound was added to the second plate, as well as vehicle control, and cells further incubated for 96 hours. The compound was tested at each concentration and in triplicates. The equivalent cell number was determined after adding propidium iodide by measuring the signal by fluorescence (Ti for test article, C for control).
# 1138L (Uterus) = test: as above; settings: 96 hours
# Protocol: as §1, §2
# 1218L (Bladder) = test: as above; settings: 96 hours
# Protocol: as §1, §2
# 1619L (Ovarian) = test: as above; settings: 96 hours
# Protocol: as §1, §2
# 1657L (Pancreas) = test: as above; settings: 96 hours
# Protocol: as §1, §2
# 1752L (Pleuramesot.) = test: as above; settings: 96 hours
# Protocol: as §1, §2
# 1781L (Renal) = test: as above; settings: 96 hours
# Protocol: as §1, §2
# 22RV1 (Prostate) = test: as above; settings: Homo sapiens, 96 hours
# Protocol: as §1, §2
# 251L (Gastric) = test: as above; settings: 96 hours
# Protocol: as §1, §2
# 276L (Melanoma) = test: as above; settings: 96 hours
# Protocol: as §1, §2
# 289L (Lung) = test: as above; settings: 96 hours
# Protocol: as §1, §2
# 393NL (Renal) = test: as above; settings: 96 hours
# Protocol: as §1, §2
# 394NL (Melanoma) = test: as above; settings: 96 hours
# Protocol: as §1, §2
# 401NL (Mammary) = test: as above; settings: 96 hours
# Protocol: as §1, §2
# 462NL (Melanoma) = test: as above; settings: 96 hours
# Protocol: as §1, §2
# 486L (Renal) = test: as above; settings: 96 hours
# Protocol: as §1, §2
# 498NL (CNS) = test: as above; settings: 96 hours
# Protocol: as §1, §2
# 514L (Melanoma) = test: as above; settings: 96 hours
# Protocol: as §1, §2
# 520L (Melanoma) = test: as above; settings: 96 hours
# Protocol: as §1, §2
# 526L (Lung) = test: as above; settings: 96 hours
# Protocol: as §1, §2
# 536L (Head & Neck) = test: as above; settings: 96 hours
# Protocol: as §1, §2
# 629L (Lung) = test: as above; settings: 96 hours
# Protocol: as §1, §2
# 899L (Ovarian) = test: as above; settings: 96 hours
# Protocol: as §1, §2
# 944L (Renal) = test: as above; settings: 96 hours
# Protocol: as §1, §2
# DU145 (Prostate) = test: as above; settings: Homo sapiens, DU-145, 96 hours
# Protocol: as §1, §2
# H460 (Lung) = test: as above; settings: Homo sapiens, NCI-H460, 96 hours
# Protocol: as §1, §2
# HCT116 (Colon) = test: as above; settings: Homo sapiens, HCT-116, 96 hours
# Protocol: as §1, §2
# HT29 (Colon) = test: as above; settings: Homo sapiens, HT-29, 96 hours
# Protocol: as §1, §2
# LNCAP (Prostate) = test: as above; settings: Homo sapiens, 96 hours
# Protocol: as §1, §2
# MCF7 (Mammary) = test: as above; settings: Homo sapiens, 96 hours
# Protocol: as §1, §2
# OVCAR3 (Ovarian) = test: as above; settings: Homo sapiens, OVCAR-3, 96 hours
# Protocol: as §1, §2
# PANC1 (Pancreas) = test: as above; settings: Homo sapiens, PANC-1, 96 hours
# Protocol: as §1, §2
# PC3M (Prostate) = test: as above; settings: Homo sapiens, PC-3M, 96 hours
# Protocol: as §1, §2
# SF268 (CNS) [3] = test: as above; settings: Homo sapiens, SF-268, 96 hours
# Protocol: as §1, §2
# Sheep red blood cells = test: In vitro toxicity: hemolytic activity; settings: 2 hrs at 37° C.; 2 to 64 μg/mL; prepared in DMSO or in 6% Tween/4.5% Glycocholate/5% EtOH formulation
# Protocol: In vitro toxicity: Sheep red blood cells were exposed to Compound 1 for 2 hrs at 37° C. at concentrations ranging from 2 to 64 μg/mL. Hemolytic activity was determined by monitoring the amount of hemoglobin released spectrophotometrically.
# [4] = tested on: Staphylococcus aureus (ATCC™ 6538P); test: Antibacterial activity, MIC (NCCLS M7-A5); settings: MH medium, 35° C., 16 to 20 hours
# [5] = tested on: Enterococcus faecalis VRE-1 (ATCC™ 29212); test: Antibacterial activity, MIC (NCCLS M7-A5); settings: BHI+ medium, 35° C., 16 to 20 hours
smiles,measurement,setting,value
CCC(C)c1cc2c(=O)c3ccc4c(OC)c5c(=O)c6c(O)ccc(O)c6c(=O)c5c(O)c4c3c(=O)c2c(=O)n1CC(=O)N1CC(C(=O)O)NC(=O)C1C (stereo not drawn) [Compound 1],GI50,[1],14.6 µM
same,GI50,SF268 (CNS) [2],3.36 µM
same,IC50,1121L (Lung),0.63 µM
same,IC50,1138L (Uterus),< 0.41 µM
same,IC50,1218L (Bladder),18.4 µM
same,IC50,1619L (Ovarian),19.6 µM
same,IC50,1657L (Pancreas),20 µM
same,IC50,1752L (Pleuramesot.),4.23 µM
same,IC50,1781L (Renal),7.54 µM
same,IC50,22RV1 (Prostate),1.65 µM
same,IC50,251L (Gastric),0.72 µM
same,IC50,276L (Melanoma),8.26 µM
same,IC50,289L (Lung),5.04 µM
same,IC50,393NL (Renal),9.08 µM
same,IC50,394NL (Melanoma),9.99 µM
same,IC50,401NL (Mammary),< 0.41 µM
same,IC50,462NL (Melanoma),24.7 µM
same,IC50,486L (Renal),20.7 µM
same,IC50,498NL (CNS),3.7 µM
same,IC50,514L (Melanoma),10.7 µM
same,IC50,520L (Melanoma),7.25 µM
same,IC50,526L (Lung),3.09 µM
same,IC50,536L (Head & Neck),22.5 µM
same,IC50,629L (Lung),11.9 µM
same,IC50,899L (Ovarian),34.9 µM
same,IC50,944L (Renal),14.9 µM
same,IC50,DU145 (Prostate),< 0.41 µM
same,IC50,H460 (Lung),6.08 µM
same,IC50,HCT116 (Colon),8.24 µM
same,IC50,HT29 (Colon),5.77 µM
same,IC50,LNCAP (Prostate),0.72 µM
same,IC50,MCF7 (Mammary),4.37 µM
same,IC50,OVCAR3 (Ovarian),26.2 µM
same,IC50,PANC1 (Pancreas),14.4 µM
same,IC50,PC3M (Prostate),0.91 µM
same,IC50,SF268 (CNS) [3],1.52 µM
same,Hemolytic activity (hemoglobin released),Sheep red blood cells,did not display hemolytic activity up to 64 μg/mL
same,MIC,[4],0.016 µg/mL
same,MIC,[5],0.063 µg/mL
